Measurements published in PubChem BioAssay AID256 (DTP/NCI, 2004).
“And” between values parts separate entries of the source, which are not always exact repeats. Equal values may be shown once. Toxic doses and inconclusive results are not listed. Rule for the calls: active = survival T/C of 150% or more; inactive = T/C below 125% in these data.

Test system: CD2F1 mice, L1210 leukemia ip, survival T/C
Experiment: NCI In Vivo Anticancer Drug Screen. Data for tumor model L1210 Leukemia (intraperitoneal) in CD2F1 (CDF1) mice
Details: higher = longer survival
Procedure, shortened: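 Antitumor effect is scored in animals hosting a serially transplanted tumor. Values compare compound-dosed animals against vehicle-only controls as a simple quotient.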

[1] = endpoint: mean survival time, dose: 100.0 mg/kg/injection, schedule: Q04DX003 (ip), vehicle: saline
[2] = endpoint: mean survival time, dose: 200.0 mg/kg/injection, schedule: Q04DX003 (ip), vehicle: saline
[3] = endpoint: mean survival time, dose: 400.0 mg/kg/injection, schedule: Q04DX003 (ip), vehicle: saline
[4] = endpoint: mean survival time, dose: 100.0 mg/kg/injection, schedule: Q04DX003 (ip), vehicle: saline with Tween-80
[5] = endpoint: mean survival time, dose: 200.0 mg/kg/injection, schedule: Q04DX003 (ip), vehicle: saline with Tween-80
[6] = endpoint: mean survival time, dose: 400.0 mg/kg/injection, schedule: Q04DX003 (ip), vehicle: saline with Tween-80
[7] = endpoint: mean survival time, dose: 6.25 mg/kg/injection, schedule: Q04DX002 (ip), vehicle: saline
[8] = endpoint: mean survival time, dose: 12.5 mg/kg/injection, schedule: Q04DX002 (ip), vehicle: saline
[9] = endpoint: mean survival time, dose: 25.0 mg/kg/injection, schedule: Q04DX002 (ip), vehicle: saline
[10] = endpoint: mean survival time, dose: 50.0 mg/kg/injection, schedule: Q04DX002 (ip), vehicle: saline
[11] = endpoint: median survival time, dose: 50.0 mg/kg/injection, schedule: Q04DX003 (ip), vehicle: saline with Tween-80
[12] = endpoint: mean survival time, dose: 100.0 mg/kg/injection, schedule: Q01DX001 (ip), vehicle: saline with Tween-80
[13] = endpoint: mean survival time, dose: 200.0 mg/kg/injection, schedule: Q01DX001 (ip), vehicle: saline with Tween-80
[14] = endpoint: mean survival time, dose: 400.0 mg/kg/injection, schedule: Q01DX001 (ip), vehicle: saline with Tween-80

Measured: T/C

COC1(C)CCC(=O)O1 (configuration not stated)
inactive: [1] 96 % of control | [2] 96 % of control | [3] 101 % of control

O=C1c2[nH]c3ccccc3c2CC1N1C(=O)c2ccccc2C1=O (configuration not stated)
inactive: [4] 87 % of control | [5] 93 % of control | [6] 91 % of control

O=C(CC(=O)c1ccccc1F)Nc1ccc([N+](=O)[O-])cc1
inactive: endpoint: mean survival time, dose: 100.0 mg/kg/injection, schedule: Q01DX009 (ip), vehicle: saline with Tween-80 90 % of control | [4] 96 % of control | endpoint: mean survival time, dose: 200.0 mg/kg/injection, schedule: Q01DX009 (ip), vehicle: saline with Tween-80 93 % of control | [5] 95 % of control | endpoint: mean survival time, dose: 400.0 mg/kg/injection, schedule: Q01DX009 (ip), vehicle: saline with Tween-80 88 % of control | [6] 97 % of control

N=C(N)c1ccc(NC(=O)c2ccc(C(=O)Nc3ccc(C(=N)N)cc3)c(N)c2)cc1
inactive: endpoint: median survival time, dose: 12.5 mg/kg/injection, schedule: Q01DX009 (ip), vehicle: saline with Tween-80 101 % of control and 110 % of control | endpoint: median survival time, dose: 25.0 mg/kg/injection, schedule: Q01DX009 (ip), vehicle: saline with Tween-80 102 % of control and 112 % of control | endpoint: median survival time, dose: 50.0 mg/kg/injection, schedule: Q01DX009 (ip), vehicle: saline with Tween-80 119 % of control and 103 % of control | endpoint: median survival time, dose: 100.0 mg/kg/injection, schedule: Q01DX009 (ip), vehicle: saline with Tween-80 121 % of control and 96 % of control and 112 % of control | endpoint: median survival time, dose: 200.0 mg/kg/injection, schedule: Q01DX009 (ip), vehicle: saline with Tween-80 107 % of control

CC[N+](C)(CC)Cc1cc(C(C)=O)c(C)o1
inactive: [7] 98 % of control | [8] 98 % of control | [9] 102 % of control | [10] 91 % of control | endpoint: median survival time, dose: 50.0 mg/kg/injection, schedule: Q04DX002 (ip), vehicle: saline 100 % of control

CC(C)(C)C1CC(=O)N(c2ccccc2)N1 (configuration not stated)
inactive: [4] 106 % of control | [5] 98 % of control | [6] 98 % of control

O=C1OC(=O)C2C1OC1C(=O)OC(=O)C12 (configuration not stated)
inactive: [7] 103 % of control | [8] 106 % of control | [9] 95 % of control

COCS(=O)[O-].[C-]#[O+].[C-]#[O+].[Fe+6].[c-]1[c-][c-][cH-][c-]1
inactive: [8] 101 % of control | [9] 93 % of control | [10] 96 % of control

CS(=O)(=O)c1cc([N+](=O)[O-])cc([N+](=O)[O-])c1Cl
inactive: endpoint: mean survival time, dose: 2.5 mg/kg/injection, schedule: Q01DX009 (ip), vehicle: saline with Tween-80 95 % of control | endpoint: mean survival time, dose: 5.0 mg/kg/injection, schedule: Q01DX009 (ip), vehicle: saline with Tween-80 91 % of control | endpoint: mean survival time, dose: 5.0 mg/kg/injection, schedule: Q04DX003 (ip), vehicle: saline with Tween-80 97 % of control | endpoint: mean survival time, dose: 10.0 mg/kg/injection, schedule: Q01DX009 (ip), vehicle: saline with Tween-80 96 % of control | endpoint: mean survival time, dose: 10.0 mg/kg/injection, schedule: Q04DX003 (ip), vehicle: saline with Tween-80 100 % of control

O=S(=O)(O)c1ccc(-c2ccc(S(=O)(=O)O)cc2)cc1
inactive: endpoint: mean survival time, dose: 6.3 mg/kg/injection, schedule: Q01DX009 (ip), vehicle: saline 104 % of control | endpoint: mean survival time, dose: 6.3 mg/kg/injection, schedule: Q04DX003 (ip), vehicle: saline 102 % of control | endpoint: mean survival time, dose: 12.5 mg/kg/injection, schedule: Q01DX001 (ip), vehicle: saline 101 % of control | endpoint: mean survival time, dose: 12.5 mg/kg/injection, schedule: Q01DX009 (ip), vehicle: saline 104 % of control | endpoint: mean survival time, dose: 12.5 mg/kg/injection, schedule: Q04DX003 (ip), vehicle: saline 100 % of control | endpoint: mean survival time, dose: 25.0 mg/kg/injection, schedule: Q01DX001 (ip), vehicle: saline 103 % of control | endpoint: mean survival time, dose: 25.0 mg/kg/injection, schedule: Q01DX009 (ip), vehicle: saline 101 % of control | endpoint: mean survival time, dose: 25.0 mg/kg/injection, schedule: Q04DX003 (ip), vehicle: saline 100 % of control | endpoint: mean survival time, dose: 50.0 mg/kg/injection, schedule: Q01DX001 (ip), vehicle: saline 101 % of control | endpoint: mean survival time, dose: 50.0 mg/kg/injection, schedule: Q01DX009 (ip), vehicle: saline 104 % of control | endpoint: mean survival time, dose: 50.0 mg/kg/injection, schedule: Q04DX003 (ip), vehicle: saline 93 % of control | endpoint: mean survival time, dose: 100.0 mg/kg/injection, schedule: Q01DX001 (ip), vehicle: saline 100 % of control and 108 % of control | endpoint: mean survival time, dose: 100.0 mg/kg/injection, schedule: Q01DX009 (ip), vehicle: saline 106 % of control | [1] 103 % of control | endpoint: mean survival time, dose: 200.0 mg/kg/injection, schedule: Q01DX001 (ip), vehicle: saline 100 % of control and 105 % of control | endpoint: mean survival time, dose: 200.0 mg/kg/injection, schedule: Q01DX009 (ip), vehicle: saline 98 % of control | [2] 100 % of control | endpoint: mean survival time, dose: 400.0 mg/kg/injection, schedule: Q01DX001 (ip), vehicle: saline 104 % of control and 107 % of control

CC(C)(Nc1ccccc1)c1cccs1
inactive: [4] 101 % of control | [5] 97 % of control | [6] 112 % of control

COc1ccc(C(=O)CC(C(=O)O)c2ccc3c(c2)OCO3)cc1OC (configuration not stated)
inactive: [4] 101 % of control | [5] 101 % of control | [6] 101 % of control

C=CCOCC(O)C[As](=O)(O)c1cccc(Cl)c1 (configuration not stated)
inactive: endpoint: mean survival time, dose: 6.25 mg/kg/injection, schedule: Q04DX003 (ip), vehicle: saline with Tween-80 103 % of control | endpoint: mean survival time, dose: 12.5 mg/kg/injection, schedule: Q04DX003 (ip), vehicle: saline with Tween-80 119 % of control

CNC(=O)NNc1ccccc1
inactive: [4] 102 % of control | [5] 98 % of control | [6] 104 % of control

Cc1c2ccccc2cc2c1ccc1cccc(F)c12
inactive: endpoint: median survival time, dose: 12.5 mg/kg/injection, schedule: Q04DX003 (ip), vehicle: saline with Tween-80 100 % of control | endpoint: median survival time, dose: 25.0 mg/kg/injection, schedule: Q04DX003 (ip), vehicle: saline with Tween-80 100 % of control | [11] 100 % of control

CCOC(=O)c1cc2c3n(c1=O)CCCC3C(c1ccc(Cl)c(Cl)c1)OC2=O (configuration not stated)
inactive: [1] 98 % of control | [2] 101 % of control | [3] 104 % of control

CCOC(=O)c1ccc(N)c(C(O)(C(F)(F)F)C(F)(F)F)c1
inactive: [4] 103 % of control | [5] 97 % of control | [6] 97 % of control

Nc1ccc(OCC(=O)O)cc1
inactive: [12] 101 % of control | [13] 98 % of control | [14] 110 % of control

CCCCC(N)C(=O)O (configuration not stated)
inactive: [12] 104 % of control | [1] 105 % of control | [13] 104 % of control | [2] 103 % of control | [14] 102 % of control | [3] 95 % of control

COC(=O)c1cc(Cl)c(C(=O)OC)cc1Cl
inactive: endpoint: mean survival time, dose: 100.0 mg/kg/injection, schedule: Q01DX009 (ip), vehicle: Klucel (hydroxypropylcellulose) (HPC) 92 % of control | endpoint: mean survival time, dose: 200.0 mg/kg/injection, schedule: Q01DX009 (ip), vehicle: Klucel (hydroxypropylcellulose) (HPC) 97 % of control | endpoint: mean survival time, dose: 400.0 mg/kg/injection, schedule: Q01DX009 (ip), vehicle: Klucel (hydroxypropylcellulose) (HPC) 102 % of control

CC(C)NCC(O)c1ccc(O)c(O)c1.[Pt].c1ccc([PH+](c2ccccc2)c2ccccc2)cc1.c1ccc([PH+](c2ccccc2)c2ccccc2)cc1
inactive: endpoint: median survival time, dose: 10.0 mg/kg/injection, schedule: Q04DX003 (ip), vehicle: saline with Tween-80 108 % of control | endpoint: median survival time, dose: 20.0 mg/kg/injection, schedule: Q04DX003 (ip), vehicle: saline with Tween-80 105 % of control | endpoint: median survival time, dose: 40.0 mg/kg/injection, schedule: Q04DX003 (ip), vehicle: saline with Tween-80 105 % of control | [11] 101 % of control | endpoint: median survival time, dose: 80.0 mg/kg/injection, schedule: Q04DX003 (ip), vehicle: saline with Tween-80 102 % of control | endpoint: median survival time, dose: 100.0 mg/kg/injection, schedule: Q04DX003 (ip), vehicle: saline with Tween-80 98 % of control
